Structures can show the parent of a compound that is named as a salt.
Assays:
[1] = system: DU145 (human prostate cancer cells); experiment: Antiproliferative activity, WST1 colorimetric test, DU145; assay type: cell-based; details: DU-145, 96 hours treatment, up to 10 μM, read-out: Cl50 on the cell proliferation of the lines DU-145
Description: (§1) iii) Characterization of the Antiproliferative Activity:
(§2) By way of example, the effect of a treatment on two human cell lines Mia-Paca2 and DU145 by the compounds of the examples described previously will be studied. The cell lines DU145 (human prostate cancer cells) and Mia-PaCa2 (human pancreas cancer cells) were acquired from the American Tissue Culture Collection (Rockville, Md., USA). The cells placed in 80 μl of Dulbecco's Modified Eagle's medium (Gibco-Brl, Cergy-Pontoise, France) completed with 10% foetal calf serum inactivated by heating (Gibco-Brl, Cergy-Pontoise, France), 50,000 units/l of penicillin and 50 mg/l of streptomycin (Gibco-Brl, 10378-057, Cergy-Pontoise, France), and 2 mM of glutamine (Gibco-Brl, Cergy-Pontoise, France) were seeded on a 96-well plate on day 0. The cells were treated on day 1 for 96 hours with increasing concentrations of each of the compounds to be tested up to 10 μM. At the end of this period, quantification of cell proliferation is evaluated by a colorimetric test based on the cleavage of the tetrazolium salt WST1 by the mitochondrial dehydrogenases in viable cells leading to the formation of formazan (Boehringer Mannheim, Meylan, France). These tests are carried out in duplicate with 8 determinations per concentration tested. For each compound to be tested, the values included in the linear part of the sigmoid were retained for a linear regression analysis and used to estimate the inhibitory concentration IC50. The products are solubilized in dimethylsulphoxide (DMSO) at 10^−2 M and used in culture with 0.1% DMSO final.

[2] = system: Mia-PaCa2 (human pancreas cancer cells); experiment: Antiproliferative activity, WST1 colorimetric test, Mia-PaCa2; assay type: cell-based; details: MIA PaCa-2, 96 hours treatment, up to 10 μM, read-out: CI50 on the cell proliferation of the lines Mia-Paca2
Description: as §1, §2

Row | Compound | IC50 [1] [µM] | melting point [°C] | IC50 [2] [µM]
1 | Cc1nc2c(s1)C(=O)C=C(NCCCN1CCN(C)CC1)C2=O [Example 5, 2-methyl-5-{[3-(4-methyl-1-piperazinyl)propyl]amino}-1,3-benzothiazole-4,7-dione] | ≤ 10 | – | –
2 | Cc1nc2c(s1)C(=O)C(Cl)=C(NCCN(C)C)C2=O [Example 34] | ≤ 10 | – | –
3 | CCc1nc2c(o1)C(=O)C(Cl)=C(Nc1ccccc1)C2=O [Example 16, 5-anilino-6-chloro-2-ethyl-1,3-benzoxazole-4,7-dione] | ≤ 10 | 159 | ≤ 10
4 | CN(C)CCNC1=CC(=O)c2sc(CN3CCCCC3)nc2C1=O [Example 39, 5-{[2-(dimethylamino)ethyl]amino}-2-(piperidin-1-ylmethyl)-1,3-benzothiazole-4,7-dione] | ≤ 10 | – | –
5 | Cc1nc2c(s1)C(=O)C=C(NCC13CC4CC(CC(C4)C1)C3)C2=O [Example 7, 5-[(1-adamantylmethyl)amino]-2-methyl-1,3-benzothiazole-4,7-dione] | ≤ 10 | – | –
6 | CCc1nc2c(o1)C(=O)C(C)=C(NCCN(C)C)C2=O [Example 55, 5-{[2-(dimethylamino)ethyl]amino}-2-ethyl-6-methyl-1,3-benzoxazole-4,7-dione] | ≤ 10 | 135 | –
7 | CCCCSC1=C(NCCN(C)C)C(=O)c2nc(C)sc2C1=O [Example 36, 6-(butylthio)-5-{[2-(dimethylamino)ethyl]amino}-2-methyl-1,3-benzothiazole-4,7-dione] | ≤ 10 | – | –
8 | Cc1nc2c(s1)C(=O)C=C(NCCCN1CCCCC1C)C2=O (stereo not shown) [Example 25, 2-methyl-5-{[3-(2-methylpiperidin-1-yl)propyl]amino}-1,3-benzothiazole-4,7-dione] | ≤ 10 | – | –
9 | CN(C)CCNC1=CC(=O)c2sc(CN3CCOCC3)nc2C1=O [Example 37, 5-{[2-(dimethylamino)ethyl]amino}-2-(morpholin-4-ylmethyl)-1,3-benzothiazole-4,7-dione] | ≤ 10 | – | –
10 | CCc1nc2c(o1)C(=O)C=C(Nc1ccccc1)C2=O [Example 15, 5-anilino-2-ethyl-4,7-dihydrobenzo[d][1,3]oxazole-4,7-dione] | ≤ 10 | 200 | ≤ 10
11 | CCCCCC(CC)NC1=CC(=O)c2sc(C)nc2C1=O (stereo not shown) [Example 6, 5-[(1-ethylhexyl)amino]-2-methyl-1,3-benzothiazole-4,7-dione] | ≤ 10 | – | –
12 | Cc1nc2c(s1)C(=O)C=C(NCCN1CCCCC1)C2=O [Example 20, 2-methyl-5-[(2-piperidin-1-ylethyl)amino]-1,3-benzothiazole-4,7-dione] | ≤ 10 | – | –
13 | Cc1nc2c(s1)C(=O)C=C(NCc1cccs1)C2=O [Example 8, 2-methyl-5-[(2-thienylmethyl)amino]-1,3-benzothiazole-4,7-dione] | ≤ 10 | – | –
14 | Cc1nc2c(s1)C(=O)C=C(NCCN1CCCC1)C2=O [Example 19, 2-methyl-5-[(2-pyrrolidin-1-ylethyl)amino]-1,3-benzothiazole-4,7-dione] | ≤ 10 | – | –
15 | Cc1nc2c(s1)C(=O)C=C(N1CCN(Cc3ccccc3)CC1)C2=O [Example 14, 5-(4-benzyl-1-piperazinyl)-2-methyl-1,3-benzothiazole-4,7-dione] | ≤ 10 | – | –

Other lines, results leading:

Row | IC50 [1] [µM] | melting point [°C] | IC50 [2] [µM] | Compound
16 | ≤ 10 | – | – | Cc1nc2c(s1)C(=O)C=C(NCCCCCCN(C)C)C2=O [Example 3, 5-{[6-(dimethylamino)hexyl]amino}-2-methyl-1,3-benzothiazole-4,7-dione]
17 | ≤ 10 | – | – | Cc1nc2c(s1)C(=O)C=C(NCCCNC(=O)OC(C)(C)C)C2=O [Example 31, tert-butyl 3-[(2-methyl-4,7-dioxo-4,7-dihydro-1,3-benzothiazol-5-yl)amino]propylcarbamate]
18 | ≤ 10 | – | – | Cc1nc2c(s1)C(=O)C=C(NCCN(C(C)C)C(C)C)C2=O [Example 21, 5-{[2-(diisopropylamino)ethyl]amino}-2-methyl-1,3-benzothiazole-4,7-dione]
19 | ≤ 10 | – | – | CN(C)CCNC1=CC(=O)c2sc(CN3CCN(c4ccccc4)CC3)nc2C1=O [Example 38]
20 | ≤ 10 | – | – | Cc1nc2c(s1)C(=O)C=C(NC1CCN(Cc3ccccc3)C1)C2=O (stereo not shown) [Example 22, 5-[(1-benzylpyrrolidin-3-yl)amino]-2-methyl-1,3-benzothiazole-4,7-dione]
21 | ≤ 10 | – | – | Cc1nc2c(s1)C(=O)C=C(NCC(C)(C)CN(C)C)C2=O [Example 4, 5-{[3-(dimethylamino)-2,2-dimethylpropyl]amino}-2-methyl-1,3-benzothiazole-4,7-dione]
22 | ≤ 10 | – | – | Cc1nc2c(s1)C(=O)C=C(NCCCN(C)C(=O)OC(C)(C)C)C2=O [Example 30, tert-butyl methyl{3-[(2-methyl-4,7-dioxo-4,7-dihydro-1,3-benzothiazole-5-yl)amino]propyl}carbamate]
23 | ≤ 10 | – | – | Cc1nc2c(s1)C(=O)C=C(NC1CCc3ccccc31)C2=O (stereo not shown) [Example 28, 5-(2,3-dihydro-1H-inden-1-ylamino)-2-methyl-1,3-benzothiazole-4,7-dione]
24 | ≤ 10 | – | – | Cc1nc2c(s1)C(=O)C=C(NCCCN(C)C)C2=O [Example 23, 5-{[3-(dimethylamino)propyl]amino}-2-methyl-1,3-benzothiazole-4,7-dione]
25 | ≤ 10 | – | – | COCCNC1=CC(=O)c2sc(C)nc2C1=O [Example 18, 5-[(2-methoxyethyl)amino]-2-methyl-1,3-benzothiazole-4,7-dione]
26 | ≤ 10 | – | – | Cc1nc2c(s1)C(=O)C=C(NCCN(C)C)C2=O [Example 2, 5-{[2-(dimethylamino)ethyl]amino}-2-methyl-1,3-benzothiazole-4,7-dione hydrochloride]
27 | ≤ 10 | – | – | Cc1nc2c(s1)C(=O)C=C(NCc1cccc(Cl)c1)C2=O [Example 9, 5-[(3-chlorobenzyl)amino]-2-methyl-1,3-benzothiazole-4,7-dione]
28 | ≤ 10 | – | – | Cc1nc2c(s1)C(=O)C=C(N(CCN(C)C)Cc1ccccc1)C2=O [Example 29, 5-{benzyl[2-(dimethylamino)ethyl]amino}-2-methyl-1,3-benzothiazole-4,7-dione]
29 | ≤ 10 | 232 | ≤ 10 | CCc1nc2c(o1)C(=O)C=C(Nc1ccc(F)cc1)C2=O [Example 17, 2-ethyl-5-[(4-fluorophenyl)amino]-1,3-benzoxazole-4,7-dione]
30 | ≤ 10 | – | – | CNCCCNC1=CC(=O)c2sc(C)nc2C1=O [Example 32, 2-methyl-5-{[3-(methylamino)propyl]amino}-1,3-benzothiazole-4,7-dione hydrochloride]
31 | ≤ 10 | – | – | Cc1nc2c(s1)C(=O)C=C(NCCC1CCCN1C)C2=O (stereo not shown) [Example 24, 2-methyl-5-{[2-(1-methylpyrrolidin-2-yl)ethyl]amino}-1,3-benzothiazole-4,7-dione]
32 | ≤ 10 | – | ≤ 10 | Cc1nc2c(s1)C(=O)C=C(NCCCN)C2=O [Example 33, 5-[(3-aminopropyl)amino]-2-methyl-1,3-benzothiazole-4,7-dione]
33 | ≤ 10 | – | – | Cc1nc2c(s1)C(=O)C=C(NCCN1CCOCC1)C2=O [Example 1, 2-methyl-5-{[2-(4-morpholinyl)ethyl]amino}-1,3-benzothiazole-4,7-dione]
34 | ≤ 10 | – | – | Cc1nc2c(s1)C(=O)C=C(NCCCCCN(C)C)C2=O [Example 27, 5-{[5-(dimethylamino)pentyl]amino}-2-methyl-1,3-benzothiazole-4,7-dione]
35 | ≤ 10 | – | – | Cc1nc2c(s1)C(=O)C=C(NCCCCN(C)C)C2=O [Example 26, 5-{[4-(dimethylamino)butyl]amino}-2-methyl-1,3-benzothiazole-4,7-dione]

Source: patent US7495021B2, “Benzothiazole- and benzooxazole-4,7-dione, derivatives and their use as cdc25 phosphate inhibitors” (Societe de Conseils de Recherches et d'Applications …, priority 2001, dated 2009)
